Consider one compound from PMC4125290, “Cyclic di-GMP-dependent Signaling Pathways in the Pathogenic Firmicute Listeria monocytogenes” (PLoS Pathogens, 2014).

Assay in all cases: HPLC of c-di-GMP hydrolysis to pGpG
Assay type in all cases: biochemical
What all share (details): 250 µM c-di-GMP, 1-5 µM enzyme, 37°C

For assay [1], the target named is T1, PdeD (Lmo0111), PdeD::His6 (Listeria monocytogenes, UniProt Q8YAK7).
T1 construct: tag kept

The target of assay [2] is T2, PdeC (Lmo1914), MBP::PdeC (Listeria monocytogenes, UniProt Q8Y5Y9).
T2 construct: MBP fusion (pMAL-c2x), E. coli DH5alpha, amylose resin; MBP kept

Assay [3] deals with T3, PdeB (Lmo0131), PdeB::His6 (Listeria monocytogenes, UniProt Q8YAJ4).
T3 construct: tag kept
T3 sequence (Q8YAJ4 entry or part of it): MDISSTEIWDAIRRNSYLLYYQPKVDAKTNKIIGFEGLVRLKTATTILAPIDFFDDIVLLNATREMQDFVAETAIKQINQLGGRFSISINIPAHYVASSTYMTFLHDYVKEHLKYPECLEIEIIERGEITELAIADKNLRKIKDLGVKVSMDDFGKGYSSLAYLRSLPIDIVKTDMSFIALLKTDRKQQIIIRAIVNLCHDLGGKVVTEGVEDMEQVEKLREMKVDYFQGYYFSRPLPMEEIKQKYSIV

T2 sequence (Q8Y5Y9 entry or part of it): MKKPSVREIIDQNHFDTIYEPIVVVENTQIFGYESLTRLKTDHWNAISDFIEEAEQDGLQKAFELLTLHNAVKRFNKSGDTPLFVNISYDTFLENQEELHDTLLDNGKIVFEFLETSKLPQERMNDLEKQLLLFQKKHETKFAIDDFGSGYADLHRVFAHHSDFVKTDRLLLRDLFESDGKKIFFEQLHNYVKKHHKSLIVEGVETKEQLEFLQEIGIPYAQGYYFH
T1 sequence (Q8YAK7 entry or part of it): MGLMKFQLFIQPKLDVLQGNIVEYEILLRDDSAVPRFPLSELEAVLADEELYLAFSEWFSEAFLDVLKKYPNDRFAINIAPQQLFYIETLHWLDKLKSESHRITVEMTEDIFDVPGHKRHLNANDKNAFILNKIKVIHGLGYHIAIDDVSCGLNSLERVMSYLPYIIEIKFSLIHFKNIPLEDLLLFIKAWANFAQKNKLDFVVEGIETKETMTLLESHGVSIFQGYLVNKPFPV

With `Nc1nc2c(ncn2[C@@H]2O[C@@H]3COP(=O)(O)O[C@H]4[C@@H](O)[C@H](n5cnc6c(=O)[nH]c(N)nc65)O[C@@H]4COP(=O)(O)O[C@H]3[C@H]2O)c(=O)[nH]1` [c-di-GMP], the “HPLC of c-di-GMP hydrolysis to pGpG” value in assay [1], in assay [2] and in assay [3] was “all three recombinant proteins possess c-di-GMP PDE activities in vitro” throughout.
